Measurements as given in paper PMC12491243, “Rational design of indoleamine 2,3-dioxygenase 1 (IDO1) inhibitors featuring 1,2,3-triazole derivatives with enhanced anti-inflammatory and analgesic efficacy” (Frontiers in Pharmacology, 2025).

Experiments:
[1] = target: T1, IDO1 (Homo sapiens, UniProt P14902); assay: HeLa cell-based IDO1 inhibition assay; conditions: HeLa cells, 100 ng/mL human IFN-γ, 18 h, kynurenine absorbance at 480 nm
T1 construct: endogenous in cells; host or cells: HeLa cells stimulated with 100 ng/mL human IFN-γ
T1 sequence (P14902 whole entry): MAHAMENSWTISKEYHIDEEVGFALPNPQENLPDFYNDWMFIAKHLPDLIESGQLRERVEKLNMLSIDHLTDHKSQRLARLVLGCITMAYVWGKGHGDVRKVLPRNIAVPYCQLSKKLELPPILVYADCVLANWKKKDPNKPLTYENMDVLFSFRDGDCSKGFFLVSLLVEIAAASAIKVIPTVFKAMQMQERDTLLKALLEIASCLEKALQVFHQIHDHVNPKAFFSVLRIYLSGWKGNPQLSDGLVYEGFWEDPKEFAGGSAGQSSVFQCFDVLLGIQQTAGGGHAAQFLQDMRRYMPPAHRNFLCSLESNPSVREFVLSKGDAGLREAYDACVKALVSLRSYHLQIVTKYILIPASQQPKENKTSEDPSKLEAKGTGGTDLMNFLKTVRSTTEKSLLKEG
Procedure: To evaluate the IDO1 inhibitory activity of the newly synthesized derivatives, HeLa cells with high IDO1 expression were used as the experimental model. […] To perform the HeLa cell-based IDO1 inhibition assay, HeLa cells were seeded at a density of 50,000 cells per well in a 96-well microplate containing 100 μL of DMEM supplemented with 10% fetal bovine serum and 1% penicillin-streptomycin. The cells were incubated overnight at 37 °C in a humidified atmosphere with 5% CO2. The following day, 100 μL of growth medium containing diluted inhibitors and 100 ng/mL human IFN-γ was added to each well. The cells were then incubated at 37 °C in a CO2 incubator for 18 h. […] The plate was incubated at 50 °C for 30 min and then centrifuged at 2,500 rpm for 10 min to remove any sediment. Next, 100 μL of the supernatant was transferred to a separate 96-well plate and mixed with 100 μL of 2% (w/v) 4-(dimethylamino)benzaldehyde in acetic acid. After a 10-min incubation at room temperature, the absorbance of the resulting yellow color, indicative of kynurenine, was measured at 480 nm using a microplate reader.

[2] = tested on: CFA-induced inflammatory pain model; assay: CFA-induced thermal hyperalgesia, paw withdrawal latency; type: in vivo; conditions: CFA mice, 30 mg/kg i.p., ipsilateral side, 12 to 72 h post-CFA
Procedure: To evaluate the analgesic effects of Compound 14e in vivo, we established an inflammatory pain model using intraplantar injection of CFA. Compound 14e (30 mg/kg) was administered intraperitoneally at 6 h, with subsequent doses at 48 and 72 h after CFA injection. Behavioral assessments, including von Frey testing for mechanical allodynia and heat stimuli for thermal hyperalgesia, were conducted on the injected hind paw at baseline (BL), as well as at 6, 12, 18, 24, 48 and 72 h post-CFA injection. Additionally, flinching and guarding behaviors, indicators of spontaneous pain, were evaluated 72 h after CFA injection.
FIGURE 5 Compound 14e attenuates mechanical allodynia, thermal hyperalgesia and spontaneous pain of inflammatory pain in mice. (A,B) Evaluation of CFA-induced mechanical allodynia as assessed by withdrawal frequency to 0.07 g (A) and 0.4 g (B) von Frey filaments in mice repetitive treated with 10% DMSO or compound 14e. […]
The compound 14e were diluted with 10% DMSO, and were intraperitoneally injected with 30 mg/kg into the mice once a day for 3 days after CFA. The dosage of compound 14e was determined based on our preliminary experiments.
For the thermal nociceptive response, paw withdrawal latencies (PWLs) to thermal stimulus were measured by a heat flux radiometer (Ugo Basile S.R.L., Italy) ([Liu et al., 2023]). […]

[3] = tested on: IL-1β; assay: ELISA of IL-1β in inflamed paw, spinal cord and serum of CFA mice; type: in vivo; conditions: ipsilateral L4–L6 spinal cord and serum, 72 h after CFA
Description: To determine whether the analgesic effects of Compound 14e are associated with reduced local and systemic inflammation, we measured the levels of inflammatory factors in the inflamed paw tissue, ipsilateral L4–L6 spinal cord, and peripheral blood. The results indicated a significant increase in the protein levels of TNF-α and IL-1β in the inflamed paw, spinal cord, and serum of mice in the CFA group compared to the vehicle group.
FIGURE 6 Compound 14e reduces TNF-α and IL-1β in the inflamed hindpaw skin, spinal cord and peripheral blood 72 h after CFA-induced inflammation. (A,D) Expression levels of TNF-α and IL-1β in the inflamed skin tissue. (B,E) Expression levels of TNF-α and IL-1β in ipsilateral L4–6 spinal cord. […]
Under anesthesia with 1% pentobarbital sodium, serum was obtained from the mice orbits, after coagulation at room temperature for 2 h, the sample was then centrifuged at 1,000 × g for 20 min at 4 °C, with the supernatant collected. […] The protein concentrations were determined using a bicinchoninic acid (BCA) kit (Pierce Biotechnology Inc.). The following inflammatory factors were measured using Mouse TNF-α ELISA kit (EM0183) and IL-1β ELISA kit (EM0109) obtained from Wuhan Fine Biotechnology Company, according to the product protocols. The O.D. absorbance at 450 nm was quantified in a ultramicroplate spectrophotometer (BioTek Epoch).

O=C1COc2ccc(NC(=O)c3cccc(-c4cn(Cc5c(F)cccc5Cl)nn4)c3)cc2N1 [Compound 14e]
IC50 [1]: 3.63 µM
thermal hyperalgesia, paw withdrawal latency (PWL) [2]: significantly alleviated
CFA-induced levels of IL-1β [3]: significantly decreased
